Data as given in US20060045856A1, “Composition containing a dihydroxyacetone precursor” (priority 2004, published 2006).

Legend:
[1] = Maillard browning test, tanning test 1 (test substance in miglyol reacted with lysine); conditions: for Maillard browning colour after reacting with lysine: Tanning test 1, 0.1M in miglyol + 1M Lysine aqueous solution, room temperature
Text: (§1) The ability of compounds according to formula I to induce an artificial tanning on the skin can roughly be estimated using a simple Maillard browning test. This visual test is based on the principle that the reaction of skin with DHA to produce an artificial tan proceeds through a complex set of reactions (Maillard reaction) with free amino acids of skin proteins, particularly with arguinine, lysine and histidine.
(§2) The tanning ability of 2,5-dipalmitoyloxymethyl-[1,4]dioxane-2,5-diol (A) is evaluated by means of the Maillard browning effect after reacting with lysine in different solvents (water and the cosmetic oil miglyol) and compared with those of reference compounds: DHA and monomeric DHA-palmitic acid monoester (B) under the same conditions. Besides that, the tanning effect of 2,5-dipalmitoyloxymethyl-[1,4]dioxane-2,5-diol in the presence of lipases (enzymes used by the body to hydrolyse fats) is also studied.

[2] = Maillard browning test, tanning test 2 (aqueous test substance reacted with lysine, with or without lipase); conditions: room temperature; for Maillard browning colour after reacting with lysine: 0.1M aqueous solution or suspension + 1M Lysine aqueous solution; for Maillard browning colour after reacting with lysine, + 1% lipase: aqueous
Text: as §1, §2

[3] = DHA monomer/dimer content in aqueous solution at elevated temperature; assay type: physicochemical; conditions: DHA solutions at 30-50° C.
Text: It is assumed that the improved tanning effect at elevated temperatures in the case of 1,3-dihydroxyacetone is connected with the following mechanism. As a raw material, DHA is in the form of a powder and consists of dimers. Dissolved in water, some of the dimers convert to the active monomeric form, which brings about the tanning reaction. At an elevated water temperature, the amount of monomers increases. […] At the same time, the elevated temperature increases the reaction rate of the tanning reaction. […] It is therefore preferred according to the invention when the solution of the self-tanning substance is heated for about 15 min, but at least about 10 min, before the solution is applied to the human skin.

Compound: CCCCCCCCCCCCCCCC(=O)OCC1(O)COC(O)(COC(=O)CCCCCCCCCCCCCCC)CO1 (stereo not shown) [A, 2,5-dipalmitoyloxymethyl-[1,4]dioxane-2,5-diol]
- Maillard browning colour after reacting with lysine ([1]; 5 h): Light yellow
- Maillard browning colour after reacting with lysine ([1]; 1 day): Yellow
- Maillard browning colour after reacting with lysine ([1]; 8 days): Brown
- Ability to undergo Maillard browning reactions ([1]; overall conclusion from tanning tests 1 and 2): able to undergo Maillard browning reactions
- Maillard browning colour after reacting with lysine ([2]; 2 days): Brown
- melting point: 95.2 °C

Compound: CCCCCCCCCCCCCCCC(=O)OCC(=O)CO [B, monomeric DHA-palmitic acid monoester]
- Maillard browning colour after reacting with lysine ([1]; 1 h): Light yellow
- Maillard browning colour after reacting with lysine ([1]; 5 h): Yellow
- Maillard browning colour after reacting with lysine ([1]; 1 day): Brown
- Maillard browning colour after reacting with lysine ([1]; 8 days): Dark brown
- Maillard browning colour after reacting with lysine ([2]; 5 h): Yellow
- Maillard browning colour after reacting with lysine ([2]; 1 day): Brown
- Maillard browning colour after reacting with lysine, + 1% lipase ([2]; 1 h): Yellow
- Maillard browning colour after reacting with lysine, + 1% lipase ([2]; 1 day): Brown

Compound: O=C(CO)CO [DHA, 1,3-dihydroxyacetone]
- Maillard browning colour after reacting with lysine ([1]; 5 h): Light yellow
- Maillard browning colour after reacting with lysine ([1]; 1 day): Brown
- Maillard browning colour after reacting with lysine ([1]; 8 days): Dark brown
- Maillard browning colour after reacting with lysine ([2]; 1 h): Brown
- More active DHA monomers present than in DHA solutions at 20° C. [3]: up to 30%
